In PMC7413254 (Nature Communications, 2020):

Assays:
non-expressing oocytes = assay type: cell-based, Xenopus laevis; conditions: footnote b: highest intracellular concentration tested was 30 mM (solubility); for Total [3H]CQ transport, trans-stimulation by injected solute / Trans-stimulation data: total [3H]CQ transport: non-expressing oocytes; for Trans-stimulation data: total [3H]CQ transport: normalised to the oocyte type control (control = 100); for Trans-stimulation: total [3H]CQ transport, non-expressing oocytes: mean ± SEM, SEM
Experimental: Unless specified otherwise, the transport assays were conducted over 1.5 h at 27.5 °C and the reaction buffer was ND96 (96 mM NaCl, 2 mM KCl, 1 mM MgCl2, 1.8 mM CaCl2, 10 mM MES and 10 mM Tris-base) at pH 5.5.
The intracellular concentrations were calculated using previous estimates of the volume of stage V–VI oocytes (~400 nL[60]). […] The oocytes were injected with VF-6 suspended in 25 nL ND96 buffer adjusted to pH 5.0, 5.5, 6.0 or 7.0, which corresponded to the injection of 2.5–250 fmol of H^+. The Na^+-dependence of the trans-stimulatory effect of VF-6 was assessed by injecting the oocytes with VF-6 suspended in ND96 buffer (pH 5.5) or a Na^+-free version of this buffer (the Na^+ was replaced with choline).
At least four independent experiments were performed (on different days and using oocytes from different frogs), and within each experiment measurements were made from ten oocytes per treatment.

PfNT1 = biological target: T1, PfNT1 (Plasmodium falciparum, UniProt Q8IDM6); test: cell-based; assay type: cell-based; conditions: footnote b: highest intracellular concentration tested was 30 mM (solubility); for Total [3H]CQ transport, trans-stimulation by injected solute / Trans-stimulation data: total [3H]CQ transport: PfNT1 oocytes; for Trans-stimulation data: total [3H]CQ transport: normalised to the oocyte type control (control = 100); for Trans-stimulation: total [3H]CQ transport, PfNT1 oocytes: mean ± SEM, SEM
T1 construct: expressed in transfected cells; host or cells: Xenopus laevis oocytes (stage V-VI), cRNA-injected
T1 sequence (Q8IDM6 whole entry): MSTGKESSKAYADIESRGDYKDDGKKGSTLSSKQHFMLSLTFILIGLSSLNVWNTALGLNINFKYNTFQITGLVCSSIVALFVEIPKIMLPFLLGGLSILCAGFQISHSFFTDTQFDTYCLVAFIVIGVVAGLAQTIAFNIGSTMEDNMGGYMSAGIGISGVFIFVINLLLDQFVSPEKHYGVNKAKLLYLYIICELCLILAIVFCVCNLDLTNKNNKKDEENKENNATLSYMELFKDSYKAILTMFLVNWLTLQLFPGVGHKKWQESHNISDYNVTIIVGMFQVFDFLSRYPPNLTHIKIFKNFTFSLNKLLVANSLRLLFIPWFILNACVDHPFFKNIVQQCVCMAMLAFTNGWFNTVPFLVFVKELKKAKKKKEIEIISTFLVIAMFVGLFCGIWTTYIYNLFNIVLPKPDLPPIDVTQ
Procedure, shortened: (§1)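 Transport measured in Xenopus oocytes expressing the transporters, 1.5 h at 27.5 °C in ND96 pH 5.5 unless noted. For trans-stimulation, VF-6 injected in 25 nL ND96 at pH 5.0–7.0 or Na^+-free (choline) buffer; intracellular levels based on ~400 nL oocyte volume. Ten oocytes per treatment, ≥4 experiments.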

PfCRT^Ecu1110 = PfCRT^Ecu1110 (Plasmodium falciparum, UniProt Q9N623, A220S/I356L/K76T/N326D); test: cell-based; assay type: cell-based; conditions: for Total [3H]CQ transport, trans-stimulation by injected solute / Trans-stimulation data: total [3H]CQ transport: PfCRTEcu1110 oocytes; for Total [3H]CQ transport, trans-stimulation by injected solute / Trans-stimulation data: total [3H]CQ transport / Trans-stimulation: total [3H]CQ transport, PfCRTEcu1110 oocytes: footnote b: highest intracellular concentration tested was 30 mM (solubility); for Trans-stimulation data: total [3H]CQ transport: normalised to the oocyte type control (control = 100); for Trans-stimulation data: PfCRT-mediated [3H]CQ transport: footnote b: due to solubility the highest intracellular concentration tested was 30 mM, normalised to the oocyte type control = 100; for Trans-stimulation: total [3H]CQ transport, PfCRTEcu1110 oocytes: mean ± SEM, SEM
Sequence of PfCRT^Ecu1110 (Q9N623 whole entry A220S/I356L/K76T/N326D): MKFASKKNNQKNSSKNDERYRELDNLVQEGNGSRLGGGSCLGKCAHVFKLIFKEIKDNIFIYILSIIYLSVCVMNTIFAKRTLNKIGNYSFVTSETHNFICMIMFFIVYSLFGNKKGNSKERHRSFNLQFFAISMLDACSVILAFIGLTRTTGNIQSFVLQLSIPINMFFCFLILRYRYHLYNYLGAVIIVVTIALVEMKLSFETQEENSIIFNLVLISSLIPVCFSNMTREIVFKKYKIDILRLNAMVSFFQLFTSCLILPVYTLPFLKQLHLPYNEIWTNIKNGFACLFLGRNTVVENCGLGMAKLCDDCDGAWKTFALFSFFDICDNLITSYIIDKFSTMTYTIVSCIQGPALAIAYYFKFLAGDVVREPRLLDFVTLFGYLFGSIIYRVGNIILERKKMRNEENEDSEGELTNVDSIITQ
Procedure, shortened: as §1

PfCRT^3D7 = PfCRT^3D7 (Plasmodium falciparum, UniProt Q8IBZ9); test: cell-based; assay type: cell-based; conditions: for Trans-stimulation data: PfCRT-mediated [3H]CQ transport: 2nd of 6 trans-stimulation columns, footnote b: due to solubility the highest intracellular concentration tested was 30 mM, normalised to the oocyte type control = 100; for Total [3H]CQ transport, trans-stimulation by injected solute / Trans-stimulation data: total [3H]CQ transport: PfCRT3D7 oocytes; for Total [3H]CQ transport, trans-stimulation by injected solute / Trans-stimulation data: total [3H]CQ transport / Trans-stimulation: total [3H]CQ transport, PfCRT3D7 oocytes: footnote b: highest intracellular concentration tested was 30 mM (solubility); for Trans-stimulation data: total [3H]CQ transport: normalised to the oocyte type control (control = 100); for Trans-stimulation: total [3H]CQ transport, PfCRT3D7 oocytes: mean ± SEM, SEM
Sequence of PfCRT^3D7 (Q8IBZ9 59-398): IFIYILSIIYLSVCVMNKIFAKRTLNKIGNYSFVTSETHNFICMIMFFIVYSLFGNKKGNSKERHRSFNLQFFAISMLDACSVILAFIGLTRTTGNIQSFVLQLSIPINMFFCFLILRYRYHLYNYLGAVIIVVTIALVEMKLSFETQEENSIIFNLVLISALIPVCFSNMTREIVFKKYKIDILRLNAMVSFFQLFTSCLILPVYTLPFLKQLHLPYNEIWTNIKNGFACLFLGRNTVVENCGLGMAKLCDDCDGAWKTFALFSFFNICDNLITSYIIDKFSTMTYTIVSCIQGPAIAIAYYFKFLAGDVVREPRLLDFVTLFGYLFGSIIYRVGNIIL
Procedure, shortened: as §1

PfCRT^Dd2 = PfCRT^Dd2 (Plasmodium falciparum, UniProt Q9N623, A220S/I356T/K76T/M74I/N326S/N75E/Q271E/R371I); test: cell-based; assay type: cell-based; conditions: for Total [3H]CQ transport, trans-stimulation by injected solute / Trans-stimulation data: total [3H]CQ transport: PfCRTDd2 oocytes; for Total [3H]CQ transport, trans-stimulation by injected solute / Trans-stimulation data: total [3H]CQ transport / Trans-stimulation: total [3H]CQ transport, PfCRTDd2 oocytes: footnote b: highest intracellular concentration tested was 30 mM (solubility); for Trans-stimulation data: total [3H]CQ transport: normalised to the oocyte type control (control = 100); for PfCRT-mediated [3H]CQ transport, trans-stimulation by injected solute, PfCRTDd2 / Trans-stimulation data: PfCRT-mediated [3H]CQ transport: footnote b: due to solubility the highest intracellular concentration tested was 30 mM; for PfCRT-mediated [3H]CQ transport, trans-stimulation by injected solute, PfCRTDd2: background subtracted; for Trans-stimulation data: PfCRT-mediated [3H]CQ transport: normalised to the oocyte type control = 100; for Trans-stimulation: total [3H]CQ transport, PfCRTDd2 oocytes: mean ± SEM, SEM
Sequence of PfCRT^Dd2 (Q9N623 whole entry A220S/I356T/K76T/M74I/N326S/N75E/Q271E/R371I): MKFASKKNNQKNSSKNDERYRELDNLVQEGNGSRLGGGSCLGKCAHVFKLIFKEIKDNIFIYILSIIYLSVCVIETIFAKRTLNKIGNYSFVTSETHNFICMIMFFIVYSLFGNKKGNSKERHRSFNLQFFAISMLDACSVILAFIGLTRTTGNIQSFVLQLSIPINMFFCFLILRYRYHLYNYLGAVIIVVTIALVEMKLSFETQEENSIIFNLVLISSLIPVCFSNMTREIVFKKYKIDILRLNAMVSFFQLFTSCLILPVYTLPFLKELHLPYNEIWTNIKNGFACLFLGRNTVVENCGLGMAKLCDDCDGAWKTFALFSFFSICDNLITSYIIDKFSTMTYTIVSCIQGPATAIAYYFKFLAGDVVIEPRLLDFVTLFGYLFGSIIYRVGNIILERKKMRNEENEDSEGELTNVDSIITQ
Procedure, shortened: as §1

Sequence | Total [3H]CQ transport, trans-stimulation by injected solute (non-expressing oocytes) | Trans-stimulation data: total [3H]CQ transport (non-expressing oocytes) | Total [3H]CQ transport, trans-stimulation by injected solute (PfNT1) | Trans-stimulation data: total [3H]CQ transport (PfNT1) | Total [3H]CQ transport, trans-stimulation by injected solute (PfCRT^Ecu1110) | Trans-stimulation data: total [3H]CQ transport (PfCRT^Ecu1110) | Trans-stimulation data: PfCRT-mediated [3H]CQ transport (PfCRT^Ecu1110) | Trans-stimulation data: PfCRT-mediated [3H]CQ transport (PfCRT^3D7) | Total [3H]CQ transport, trans-stimulation by injected solute (PfCRT^3D7) | Trans-stimulation data: total [3H]CQ transport (PfCRT^3D7) | Total [3H]CQ transport, trans-stimulation by injected solute (PfCRT^Dd2) | Trans-stimulation data: total [3H]CQ transport (PfCRT^Dd2) | PfCRT-mediated [3H]CQ transport, trans-stimulation by injected solute, PfCRTDd2 (PfCRT^Dd2) | Trans-stimulation data: PfCRT-mediated [3H]CQ transport (PfCRT^Dd2) | Trans-stimulation: total [3H]CQ transport, non-expressing oocytes (non-expressing oocytes) | Trans-stimulation: total [3H]CQ transport, PfNT1 oocytes (PfNT1) | Trans-stimulation: total [3H]CQ transport, PfCRTEcu1110 oocytes (PfCRT^Ecu1110) | Trans-stimulation: total [3H]CQ transport, PfCRT3D7 oocytes (PfCRT^3D7) | Trans-stimulation: total [3H]CQ transport, PfCRTDd2 oocytes (PfCRT^Dd2)
SFGDLSTPDAVMG [SG-13] | 3.0 ± 0.04b % of the PfCRTDd2 control | 100 ± 3.6b | 2.9 ± 0.09b % of the PfCRTDd2 control | 98 ± 2.4b | 33 ± 1.4b % of the PfCRTDd2 control | 101 ± 2.4b | 99 ± 1.8b | 97 ± 1.9b | 3.1 ± 0.05b % of the PfCRTDd2 control | 99 ± 2.5b | 100 ± 2.9b % of the PfCRTDd2 control | 100 ± 2.9b | 98 ± 3.0b % of PfCRTDd2 control | 98 ± 3.0b |  |  |  |  | 
VHLTPEEKSAVT [VT-12] |  |  |  | 100 ± 2.8b |  | 101 ± 3.2b | 99 ± 2.9b | 97 ± 2.9b |  | 99 ± 3.5b |  | 100 ± 2.6b | 98 ± 2.2b % of PfCRTDd2 control | 98 ± 2.2b | 2.2 ± 0.03b % of PfCRTDd2 control | 2.7 ± 0.06b % of PfCRTDd2 control | 33 ± 1.6b % of PfCRTDd2 control | 3.1 ± 0.06b % of PfCRTDd2 control | 100 ± 2.6b % of PfCRTDd2 control
NAVAHVDDMPNALSALSDLH [NH-20, additional peptide, 20 residues] | 3.3 ± 0.07b % of the PfCRTDd2 control | 101 ± 4.8b | 3.2 ± 0.07b % of the PfCRTDd2 control | 100 ± 3.6b | 32 ± 1.7b % of the PfCRTDd2 control | 100 ± 3.5b | 97 ± 3.2b | 95 ± 3.2b | 3.0 ± 0.05b % of the PfCRTDd2 control | 99 ± 3.5b | 99 ± 2.8b % of the PfCRTDd2 control | 99 ± 2.8b | 97 ± 3.6b % of PfCRTDd2 control | 97 ± 3.6b |  |  |  |  | 
DDEGDDDPVPLPNVNA [DA-16, additional peptide, 16 residues] | 2.6 ± 0.08b % of the PfCRTDd2 control | 98 ± 3.5b | 3.3 ± 0.07b % of the PfCRTDd2 control | 99 ± 2.4b | 33 ± 1.8b % of the PfCRTDd2 control | 99 ± 3.7b | 98 ± 2.9b | 97 ± 2.2b | 3.1 ± 0.02b % of the PfCRTDd2 control | 100 ± 4.5b | 99 ± 2.7b % of the PfCRTDd2 control | 99 ± 2.7b | 100 ± 1.9b % of PfCRTDd2 control | 100 ± 1.9b |  |  |  |  | 
FESFGDLSTPDAVMGNPKVK [FK-20, additional peptide, 20 residues] | 2.7 ± 0.06b % of the PfCRTDd2 control | 100 ± 4.8b | 4.2 ± 0.03b % of the PfCRTDd2 control | 100 ± 4.2b | 32 ± 1.7b % of the PfCRTDd2 control | 99 ± 2.9b | 97 ± 2.0b | 98 ± 1.7b | 3.1 ± 0.05b % of the PfCRTDd2 control | 101 ± 2.7b | 101 ± 4.7b % of the PfCRTDd2 control | 101 ± 4.7b | 98 ± 4.3b % of PfCRTDd2 control | 98 ± 4.3b |  |  |  |  | 
LTPEEKSAVTALWGKVNVDEVGGEA [LA-25, additional peptide, 25 residues] | 2.5 ± 0.04b % of the PfCRTDd2 control | 101 ± 3.3b | 2.7 ± 0.07b % of the PfCRTDd2 control | 101 ± 4.1b | 33 ± 1.8b % of the PfCRTDd2 control | 101 ± 4.3b | 98 ± 4.2b | 97 ± 3.1b | 3.1 ± 0.02b % of the PfCRTDd2 control | 99 ± 2.6b | 100 ± 3.3b % of the PfCRTDd2 control | 100 ± 3.3b | 97 ± 3.3b % of PfCRTDd2 control | 97 ± 3.3b |  |  |  |  | 
LTPEEKSAVTAL [LL-12] |  | 99 ± 2.4b |  | 99 ± 2.5b |  | 100 ± 2.2b | 98 ± 1.7b | 97 ± 3.4b |  | 99 ± 2.7b |  | 100 ± 2.8b | 98 ± 1.1b % of PfCRTDd2 control | 98 ± 1.1b | 3.2 ± 0.08b % of PfCRTDd2 control | 2.2 ± 0.06b % of PfCRTDd2 control | 33 ± 1.0b % of PfCRTDd2 control | 3.1 ± 0.05b % of PfCRTDd2 control | 100 ± 2.8b % of PfCRTDd2 control
GTFATLSELHCDK [GK-13] |  | 100 ± 3.8b |  | 99 ± 2.7b |  | 99 ± 2.2b | 97 ± 1.9b | 98 ± 4.1b |  | 100 ± 3.6b |  | 97 ± 2.7b | 95 ± 1.3b % of PfCRTDd2 control | 95 ± 1.3b | 2.6 ± 0.05b % of PfCRTDd2 control | 2.6 ± 0.04b % of PfCRTDd2 control | 32 ± 1.5b % of PfCRTDd2 control | 3.1 ± 0.04b % of PfCRTDd2 control | 97 ± 2.7b % of PfCRTDd2 control
